From the supplement of paper PMC8741786
Converted amounts (≈) assume the structure as drawn.

Experiments:
Assay in all cases: minimum inhibitory concentration (ETEST)
[1] = system: Neisseria subflava/flavescens/perflava; conditions: population: general population, antibiotic use in previous 6 months: No
Protocol: (§1)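 Oropharyngeal Neisseria isolates from MSM and employees in Belgium were identified to species by MALDI-TOF MS. MICs of azithromycin, ceftriaxone and ciprofloxacin were determined by ETEST on GC agar after 24 h at 36.5 °C and 5-7% CO2, in mg/L. Values beyond the strip range are reported as >256 (azithromycin) or <0.016 (ceftriaxone); isolates that did not grow are NA.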

Neisseria meningitidis = system: Neisseria meningitidis
Protocol: as §1

Neisseria mucosa/macacae = system: Neisseria mucosa/macacae
Protocol: as §1

O=C(O)c1cn(C2CC2)c2cc(N3CCNCC3)c(F)cc2c1=O [ciprofloxacin]
[1]
Conditions	minimum inhibitory concentration [µg/mL]
isolate id (sample isolate): Co000781_4	0.75 (≈ 2.26 µM)
isolate id (sample isolate): Co000782_2	0.016 (≈ 0.0483 µM)
isolate id (sample isolate): Co000782_3	0.012 (≈ 0.0362 µM)
isolate id (sample isolate): Co000782_4	0.023 (≈ 0.0694 µM)
isolate id (sample isolate): Co000783_1	0.064 (≈ 0.193 µM)
isolate id (sample isolate): Co000783_2	0.094 (≈ 0.284 µM)
isolate id (sample isolate): Co000783_5	0.012 (≈ 0.0362 µM)
isolate id (sample isolate): Co000784_1	0.023 (≈ 0.0694 µM)
isolate id (sample isolate): Co000784_2	0.75 (≈ 2.26 µM)
isolate id (sample isolate): Co000784_5	0.023 (≈ 0.0694 µM)
isolate id (sample isolate): Co000785_1	0.016 (≈ 0.0483 µM)
isolate id (sample isolate): Co000785_2	0.25 (≈ 0.754 µM)
isolate id (sample isolate): Co000785_3	0.125 (≈ 0.377 µM)
isolate id (sample isolate): Co000785_4	0.012 (≈ 0.0362 µM)
isolate id (sample isolate): Co000786_1	0.047 (≈ 0.142 µM)
isolate id (sample isolate): Co000786_2	0.016 (≈ 0.0483 µM)
isolate id (sample isolate): Co000787_1	> 32
isolate id (sample isolate): Co000787_2	0.023 (≈ 0.0694 µM)
isolate id (sample isolate): Co000787_4	0.023 (≈ 0.0694 µM)
isolate id (sample isolate): Co000788_2	0.25 (≈ 0.754 µM)
isolate id (sample isolate): Co000788_3	0.016 (≈ 0.0483 µM)
isolate id (sample isolate): Co000788_5	0.19 (≈ 0.573 µM)
isolate id (sample isolate): Co000789_1	0.016 (≈ 0.0483 µM)
isolate id (sample isolate): Co000790_2	0.006 (≈ 0.0181 µM)
isolate id (sample isolate): Co000790_4	0.006 (≈ 0.0181 µM)

Conditions	minimum inhibitory concentration [µg/mL]
Neisseria meningitidis, isolate id (sample isolate): 19040471_1, population: MSM, antibiotic use in previous 6 months: No	0.003 (≈ 0.00905 µM)
Neisseria meningitidis, isolate id (sample isolate): 19040855_1, population: MSM, antibiotic use in previous 6 months: No	0.004 (≈ 0.0121 µM)
Neisseria meningitidis, isolate id (sample isolate): 19040874_2, population: MSM, antibiotic use in previous 6 months: No	0.004 (≈ 0.0121 µM)
Neisseria meningitidis, isolate id (sample isolate): 19040900_2, population: MSM, antibiotic use in previous 6 months: No	0.004 (≈ 0.0121 µM)
Neisseria meningitidis, isolate id (sample isolate): 19042150_2, population: MSM, antibiotic use in previous 6 months: Yes	0.002 (≈ 0.00604 µM)
Neisseria meningitidis, isolate id (sample isolate): 19042756_3, population: MSM, antibiotic use in previous 6 months: Yes	0.008 (≈ 0.0241 µM)
Neisseria meningitidis, isolate id (sample isolate): 19043201_1, population: MSM, antibiotic use in previous 6 months: No	0.003 (≈ 0.00905 µM)
Neisseria meningitidis, isolate id (sample isolate): 19043201_2, population: MSM, antibiotic use in previous 6 months: No	0.003 (≈ 0.00905 µM)
Neisseria meningitidis, isolate id (sample isolate): 19043274_1, population: MSM, antibiotic use in previous 6 months: Yes	0.004 (≈ 0.0121 µM)
Neisseria meningitidis, isolate id (sample isolate): 19043274_2, population: MSM, antibiotic use in previous 6 months: Yes	0.004 (≈ 0.0121 µM)
Neisseria meningitidis, isolate id (sample isolate): 19051853_1, population: MSM, antibiotic use in previous 6 months: No	0.004 (≈ 0.0121 µM)
Neisseria meningitidis, isolate id (sample isolate): 19052394_3, population: MSM, antibiotic use in previous 6 months: Yes	0.002 (≈ 0.00604 µM)
Neisseria meningitidis, isolate id (sample isolate): 19052434_1, population: MSM, antibiotic use in previous 6 months: Yes	0.006 (≈ 0.0181 µM)
Neisseria meningitidis, isolate id (sample isolate): 19060069_1, population: MSM, antibiotic use in previous 6 months: Yes	0.006 (≈ 0.0181 µM)
Neisseria meningitidis, isolate id (sample isolate): 19060069_2, population: MSM, antibiotic use in previous 6 months: Yes	0.004 (≈ 0.0121 µM)
Neisseria meningitidis, isolate id (sample isolate): 19060089_2, population: MSM, antibiotic use in previous 6 months: Yes	0.002 (≈ 0.00604 µM)
Neisseria meningitidis, isolate id (sample isolate): 19061666_1, population: MSM, antibiotic use in previous 6 months: Yes	0.064 (≈ 0.193 µM)
Neisseria meningitidis, isolate id (sample isolate): 19062990_1, population: MSM, antibiotic use in previous 6 months: Yes	0.004 (≈ 0.0121 µM)
Neisseria meningitidis, isolate id (sample isolate): 19070019_2, population: MSM, antibiotic use in previous 6 months: No	0.003 (≈ 0.00905 µM)
Neisseria meningitidis, isolate id (sample isolate): 19070019_4, population: MSM, antibiotic use in previous 6 months: No	0.003 (≈ 0.00905 µM)
Neisseria meningitidis, isolate id (sample isolate): 19070047_1, population: MSM, antibiotic use in previous 6 months: No	0.006 (≈ 0.0181 µM)
Neisseria meningitidis, isolate id (sample isolate): 19082621_2, population: MSM, antibiotic use in previous 6 months: No	0.004 (≈ 0.0121 µM)
Neisseria meningitidis, isolate id (sample isolate): 19091461_1, population: MSM, antibiotic use in previous 6 months: No	0.008 (≈ 0.0241 µM)
Neisseria meningitidis, isolate id (sample isolate): 19091461_2, population: MSM, antibiotic use in previous 6 months: No	0.008 (≈ 0.0241 µM)
Neisseria meningitidis, isolate id (sample isolate): 19091973_1, population: MSM, antibiotic use in previous 6 months: No	0.003 (≈ 0.00905 µM)
Neisseria meningitidis, isolate id (sample isolate): 19092429_3, population: MSM, antibiotic use in previous 6 months: No	0.003 (≈ 0.00905 µM)
Neisseria meningitidis, isolate id (sample isolate): 19103457_1, population: MSM, antibiotic use in previous 6 months: No	0.003 (≈ 0.00905 µM)
Neisseria meningitidis, isolate id (sample isolate): 19103457_4, population: MSM, antibiotic use in previous 6 months: No	0.003 (≈ 0.00905 µM)
Neisseria meningitidis, isolate id (sample isolate): 19110394_1, population: MSM, antibiotic use in previous 6 months: No	0.003 (≈ 0.00905 µM)
Neisseria meningitidis, isolate id (sample isolate): 19113049_3, population: MSM, antibiotic use in previous 6 months: No	0.004 (≈ 0.0121 µM)
Neisseria meningitidis, isolate id (sample isolate): 19113049_6, population: MSM, antibiotic use in previous 6 months: No	0.003 (≈ 0.00905 µM)
Neisseria meningitidis, isolate id (sample isolate): Co000765_1, population: general population, antibiotic use in previous 6 months: No	0.004 (≈ 0.0121 µM)
Neisseria meningitidis, isolate id (sample isolate): Co000790_1, population: general population, antibiotic use in previous 6 months: No	0.125 (≈ 0.377 µM)
Neisseria meningitidis, isolate id (sample isolate): Co000790_3, population: general population, antibiotic use in previous 6 months: No	0.125 (≈ 0.377 µM)
Neisseria mucosa/macacae, isolate id (sample isolate): 19041762_2, population: MSM, antibiotic use in previous 6 months: Yes	0.016 (≈ 0.0483 µM)
Neisseria mucosa/macacae, isolate id (sample isolate): 19051904_1, population: MSM, antibiotic use in previous 6 months: Yes	0.25 (≈ 0.754 µM)
Neisseria mucosa/macacae, isolate id (sample isolate): 19052394_2, population: MSM, antibiotic use in previous 6 months: Yes	0.012 (≈ 0.0362 µM)
Neisseria mucosa/macacae, isolate id (sample isolate): 19062968_1, population: MSM, antibiotic use in previous 6 months: Yes	6 (≈ 18.1 µM)
Neisseria mucosa/macacae, isolate id (sample isolate): 19081774_2, population: MSM, antibiotic use in previous 6 months: No	0.016 (≈ 0.0483 µM)
Neisseria mucosa/macacae, isolate id (sample isolate): 19111422_4, population: MSM, antibiotic use in previous 6 months: No	0.016 (≈ 0.0483 µM)
Neisseria mucosa/macacae, isolate id (sample isolate): 19111422_7, population: MSM, antibiotic use in previous 6 months: No	0.016 (≈ 0.0483 µM)
Neisseria mucosa/macacae, isolate id (sample isolate): Co000770_5, population: general population, antibiotic use in previous 6 months: No	0.023 (≈ 0.0694 µM)
Neisseria mucosa/macacae, isolate id (sample isolate): Co000771_4, population: general population, antibiotic use in previous 6 months: No	0.016 (≈ 0.0483 µM)
Neisseria mucosa/macacae, isolate id (sample isolate): Co000772_3, population: general population, antibiotic use in previous 6 months: No	0.006 (≈ 0.0181 µM)
Neisseria mucosa/macacae, isolate id (sample isolate): Co000773_3, population: general population, antibiotic use in previous 6 months: No	0.006 (≈ 0.0181 µM)
Neisseria mucosa/macacae, isolate id (sample isolate): Co000779_1, population: general population, antibiotic use in previous 6 months: No	0.032 (≈ 0.0966 µM)
Neisseria mucosa/macacae, isolate id (sample isolate): Co000783_3, population: general population, antibiotic use in previous 6 months: No	0.012 (≈ 0.0362 µM)
Neisseria mucosa/macacae, isolate id (sample isolate): Co000783_6, population: general population, antibiotic use in previous 6 months: No	0.023 (≈ 0.0694 µM)
Neisseria mucosa/macacae, isolate id (sample isolate): Co000787_3, population: general population, antibiotic use in previous 6 months: No	0.064 (≈ 0.193 µM)
Neisseria mucosa/macacae, isolate id (sample isolate): Co000788_1, population: general population, antibiotic use in previous 6 months: No	0.012 (≈ 0.0362 µM)
Neisseria mucosa/macacae, isolate id (sample isolate): Co000788_4, population: general population, antibiotic use in previous 6 months: No	0.012 (≈ 0.0362 µM)
